One test has as its target T1, human β1-receptor (Homo sapiens, UniProt P08588).
T1 construct: THP-1 cell line, i.e., cells expressing both human β2- and β1-receptors; host or cells: THP-1 cells
As to the kind of experiment: Human β1-receptor stimulation test (cAMP production in THP-1 cells). Type of test: cell-based. An excerpt:
(§1) Human β3, β2 and β1-receptor stimulation test
(§2) Human β3-receptor-stimulating activity was studied using SK-N-MC cell line, i.e., cells permanently expressing human β3- and human β1-receptors (SK-N-MC cells, purchased from Dainippon Pharmaceutical Co., Ltd.), and human β2- and β1-receptor-stimulating activities were studied using THP-1 cell line, i.e., cells expressing both human β2- and β1-receptors (THP-1 cells, purchased Dainippon Pharmaceutical Co., Ltd.).
(§3) The β3-receptor stimulating activity of a test compound (10^−9 to 10^−5 M) was studied using as an index cyclic AMP (hereinafter, referred to as cAMP) producing activity of SK-N-MC cells at almost confluent in the presence of a β1-receptor inhibitor ((±)-2-hydroxy-5-(2-((2-hydroxy-3-(4-(1-methyl-4-(trifluoromethyl)-1H-imidazol-2-yl)phenoxy)propyl)-amino)ethoxy)benzamide methanesulfonate, CGP-20712A (Sigma-Aldrich), 10^−6M), wherein said SK-N-MC cells were seeded into a 96-well plate at a cell density of 2×10^4 cells/well and had been cultured for 3 days. […] The cAMP production in the cells was measured by ELISA method. […]
(Cyclic AMP is a second messenger, typically raised through Gs and lowered through Gi signalling.)

The next test deals with β1-adrenoceptor. As to the kind of experiment: Autonomic beat of the excised right atrium specimen (positive chronotropic action, Magnus method). Further details: species or system Hartley guinea pig. To be noted: method of Experiment 2. The method, then:
Effect of a medicament on autonomic beat of the excised right atrium specimen based on β1-adrenoceptor-stimulating activity (study on positive chronotropic action)
The heart of Hartley guinea pig was excised, and a right atrium specimen was prepared therefrom and the experiment was carried out thereon according to Magnus method. The specimen was hung at 34° C. in Krebs-Henseleit solution to which a mixed gas of 95% oxygen and 5% carbon dioxide was aerated, and loaded so that the maximum resting tension became about 0.5 g. The autonomic beat of the right atrium was detected through a pressure transducer, and the tension and the beat were continuously recorded onto a linear recorder. A medicament was cumulatively added every time the beat became plateau. […]
In order to show the divergence between β3-stimulating activity/β1-stimulating activity in the experimental results, the EC50 value of positive chronotropic action of the test compound of Examples obtained in Experiment 2 was divided by the EC50 value of human β3-stimulating activity of said compound obtained in Experiment 1, which is the main activity in Experiment 1. The results are expressed by relative values, which are calculated by counting the value of the reference compound (AJ 9677) as 1.

The next test has as its target T2, human β3-receptor (Homo sapiens, UniProt P13945).
T2 construct: SK-N-MC cell line, i.e., cells permanently expressing human β3- and human β1-receptors; host or cells: SK-N-MC cells
As to the kind of experiment: Human β3-receptor stimulation test (cAMP production in SK-N-MC cells). It is filed as cell-based. To be noted: in the presence of β1-receptor inhibitor CGP-20712A 10^−6 M, read-out: EC50 value of β3-stimulating activity.
Excerpt: as §1, §2, §3

Another test deals with T3, human β2-receptor (Homo sapiens, UniProt P07550).
T3 construct: THP-1 cell line, i.e., cells expressing both human β2- and β1-receptors; host or cells: THP-1 cells
As to the kind of experiment: Human β2-receptor stimulation test (cAMP production in THP-1 cells). Type of test: cell-based. To be noted: with CGP-20712A, activity not observed up to a maximum concentration, read-out: β2-stimulating activity.
Excerpt: as §1, §2, §3

Counter-ions that a name gives are not always drawn.

T1 sequence (P08588 whole entry): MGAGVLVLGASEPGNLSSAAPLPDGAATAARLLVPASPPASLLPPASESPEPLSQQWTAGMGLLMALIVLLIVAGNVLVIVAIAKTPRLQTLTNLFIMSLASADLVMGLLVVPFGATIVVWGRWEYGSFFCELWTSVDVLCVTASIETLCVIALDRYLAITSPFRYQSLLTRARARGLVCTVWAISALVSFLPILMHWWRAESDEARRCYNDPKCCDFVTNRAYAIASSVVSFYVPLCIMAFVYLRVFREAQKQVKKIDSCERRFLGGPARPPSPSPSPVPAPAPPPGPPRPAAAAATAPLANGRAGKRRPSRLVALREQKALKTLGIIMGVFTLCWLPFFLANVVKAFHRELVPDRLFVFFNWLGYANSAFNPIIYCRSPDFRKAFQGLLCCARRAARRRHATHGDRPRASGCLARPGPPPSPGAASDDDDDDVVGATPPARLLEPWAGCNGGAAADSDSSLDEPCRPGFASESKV
T2 sequence (P13945 whole entry): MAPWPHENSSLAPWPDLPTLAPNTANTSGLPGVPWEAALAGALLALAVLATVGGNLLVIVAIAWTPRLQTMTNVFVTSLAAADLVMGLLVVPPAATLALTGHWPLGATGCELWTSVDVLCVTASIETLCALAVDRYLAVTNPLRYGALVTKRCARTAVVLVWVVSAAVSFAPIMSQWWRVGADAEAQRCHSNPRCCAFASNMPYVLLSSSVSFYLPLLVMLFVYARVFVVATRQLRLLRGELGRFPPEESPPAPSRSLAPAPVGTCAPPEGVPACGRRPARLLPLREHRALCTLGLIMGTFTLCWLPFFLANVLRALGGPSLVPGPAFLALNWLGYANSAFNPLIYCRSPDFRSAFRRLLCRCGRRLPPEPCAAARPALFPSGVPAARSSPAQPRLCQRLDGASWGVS
T3 sequence (P07550 whole entry): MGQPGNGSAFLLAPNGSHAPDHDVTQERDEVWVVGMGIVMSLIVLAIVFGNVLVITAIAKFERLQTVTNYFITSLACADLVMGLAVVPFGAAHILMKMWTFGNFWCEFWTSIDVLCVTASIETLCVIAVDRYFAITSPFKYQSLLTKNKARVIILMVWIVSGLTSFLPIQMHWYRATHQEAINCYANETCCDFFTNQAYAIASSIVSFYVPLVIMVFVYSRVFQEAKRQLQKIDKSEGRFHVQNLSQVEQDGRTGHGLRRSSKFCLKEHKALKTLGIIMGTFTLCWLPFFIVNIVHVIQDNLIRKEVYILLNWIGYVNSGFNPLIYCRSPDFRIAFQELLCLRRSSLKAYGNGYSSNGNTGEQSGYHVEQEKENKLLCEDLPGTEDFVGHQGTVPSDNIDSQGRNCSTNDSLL

As to `C[C@H](Cc1c[nH]c2c(OCC(=O)O)cccc12)NC[C@H](O)c1cccc(Cl)c1` [AJ 9677, reference compound], the “β1- and/or β2-adrenoceptor-stimulating activities in the conventional evaluation system” value at human β1-receptor (cells, method of Experiment 1 (β1 and β2, THP-1 cells)) is “does not exhibit β1- and/or β2-adrenoceptor-stimulating activities”. Also, the “β1- and/or β2-adrenoceptor-stimulating activities in the evaluation system using tissues” value with β1-adrenoceptor is given as “exhibits β1- and/or β2-adrenoceptor-stimulating activities”.

As for `C[C@H](Cc1c[nH]c2c(OCC(=O)O)cccc12)NC[C@H](O)c1cccnc1` [Example 2, {3-[(2 R)-2-((2R)-2-Hydroxy-2-pyridin-3-ylethylamino)propyl]-1 H-indol-7-yloxy}acetic acid.2 trifluoroacetate], the EC50 on human β3-receptor is 0.048 µM; on human β2-receptor, above 10 µM; at human β1-receptor (THP-1 cells, cAMP production, with ICI-118551, activity not observed up to a maximum concentration, read-out: β1-stimulating activity) it was above 10 µM.

The record behind these values is patent US7217724B2, “Indole, indazole, and benzazole derivative” (Dainippon Sumitomo Pharma Co., Ltd., priority 2002, dated 2007).
